Experimental findings from ChEMBL document CHEMBL4673363, “Highly potent, broadly active antifungal agents for the treatment of invasive fungal infections” (Bioorg Med Chem Lett, 2021) are described below.

A short description of data set [1]: Aqueous solubility of compound at pH 7.4. Format: physicochemical.
The nature of data set [2]: Solubility in 10% 2-hydroxypropyl-B-cyclodextrin. In kind it is physicochemical.
Data set [3] has as its target hERG (KCNH2) (Homo sapiens, UniProt Q12809). As to the kind of experiment: Inhibition of human ERG at 10 uM by Qpatch method relative to control. For orientation: The patch-clamp technique gives a direct electrical read-out from membranes.
Data set [4] deals with CYP3A. As to the kind of experiment: Inhibition of CYP3A in human liver microsomes at 10 uM using testosterone as substrate measured for 10 to 30 mins in presence of NADPH by LC-MS/MS analysis relative to control. Format: ADME. The settings on record: probe testosterone, time 10-30 min. In general terms: Liver microsomes are vesicles of endoplasmic reticulum, rich in cytochrome P450 enzymes.

Data set [5] concerns the target CYP2C19 (Homo sapiens, UniProt P33261). Kind of data set: Inhibition of CYP2C19 in human liver microsomes at 10 uM using S-mephenytoin as substrate measured for 10 to 30 mins in presence of NADPH by LC-MS/MS analysis relative to control. Format: ADME. The settings on record: probe S-mephenytoin, time 10-30 min.
Data set [6] is described as follows: Protein binding in mouse plasma at 1 uM measured after 4 hrs by LC-MS/MS based rapid equilibrium dialysis method. In kind it is ADME, cell-free. The conditions noted are these: read-out: PPB (converted). (In general: In equilibrium dialysis free small molecules cross a membrane that holds back macromolecules.)
Data set [7] has as its target T1, CYP1A2 (Homo sapiens, UniProt P05177).
T1 sequence (P05177 whole entry): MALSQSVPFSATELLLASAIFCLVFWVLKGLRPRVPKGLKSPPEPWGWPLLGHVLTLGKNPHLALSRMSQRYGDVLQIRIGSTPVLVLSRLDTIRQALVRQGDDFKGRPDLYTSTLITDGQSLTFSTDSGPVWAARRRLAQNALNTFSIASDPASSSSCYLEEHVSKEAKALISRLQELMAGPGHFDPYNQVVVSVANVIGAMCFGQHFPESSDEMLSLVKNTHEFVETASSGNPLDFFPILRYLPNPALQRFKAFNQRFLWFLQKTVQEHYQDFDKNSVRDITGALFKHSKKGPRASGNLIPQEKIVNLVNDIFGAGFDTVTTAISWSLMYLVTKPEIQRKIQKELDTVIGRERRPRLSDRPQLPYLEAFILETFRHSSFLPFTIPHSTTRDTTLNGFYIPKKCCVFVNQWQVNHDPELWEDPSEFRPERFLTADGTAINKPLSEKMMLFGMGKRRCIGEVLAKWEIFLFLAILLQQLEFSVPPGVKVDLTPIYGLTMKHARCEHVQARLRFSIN
As to the kind of experiment: Inhibition of CYP1A2 in human liver microsomes at 10 uM using phenacetin as substrate measured for 10 to 30 mins in presence of NADPH by LC-MS/MS analysis relative to control. In kind it is ADME. The settings on record: probe phenacetin, time 10-30 min.

A short description of data set [8]: Metabolic stability in mouse liver microsomes assessed as half life measured up to 60 mins in presence of NADPH by LC-MS/MS analysis. Format: ADME, Microsome.
A short description of data set [9]: Selectivity index, ratio of CC50 for human HepG2 cells to MIC for candida albicans. The conditions noted are these: read-out: Selectivity Index. In kind it is toxicity.
Data set [10] is described as follows: Cytotoxicity against mouse 3T3 cells assessed as reduction in metabolic activity measured after 24 hrs. Format: ADME, cell-based.
A short description of data set [11]: Selectivity index, ratio of CC50 for mouse 3T3 cells to MIC for candida albicans. Format: toxicity. The conditions noted are these: read-out: Selectivity Index.
The nature of data set [12]: Cytotoxicity against human HepG2 cells assessed as reduction in metabolic activity measured after 24 hrs. Format: ADME, cell-based.
In data set [13] the test system is Candida albicans. As to the kind of experiment: Antifungal activity against Candida albicans clinical isolate. In kind it is functional.
Data set [14] can be described thus: Antifungal activity against Mucor ramosissimus ATCC 90286. In kind it is functional.
Data set [15] deals with Mucor circinelloides. Kind of data set: Antifungal activity against Mucor circinelloides ATCC 26579. Format: functional.
The subject of data set [16] is Fusarium solani. Kind of data set: Antifungal activity against Fusarium solani ATCC 58877. In kind it is functional.
Data set [17] relates to Aspergillus fumigatus. As to the kind of experiment: Antifungal activity against Aspergillus fumigatus ATCC 3626. Format: functional.
The test system of data set [18] is Aspergillus flavus. As to the kind of experiment: Antifungal activity against Aspergillus flavus ATCC 3631. In kind it is functional.
Data set [19] in a line: Antifungal activity against Fusarium falciforme ATCC 3636. In kind it is functional.

Converted amounts (≈) assume the structure as drawn. Bounds are passed on as bounds.

CYP2C19, sequence (P33261 whole entry): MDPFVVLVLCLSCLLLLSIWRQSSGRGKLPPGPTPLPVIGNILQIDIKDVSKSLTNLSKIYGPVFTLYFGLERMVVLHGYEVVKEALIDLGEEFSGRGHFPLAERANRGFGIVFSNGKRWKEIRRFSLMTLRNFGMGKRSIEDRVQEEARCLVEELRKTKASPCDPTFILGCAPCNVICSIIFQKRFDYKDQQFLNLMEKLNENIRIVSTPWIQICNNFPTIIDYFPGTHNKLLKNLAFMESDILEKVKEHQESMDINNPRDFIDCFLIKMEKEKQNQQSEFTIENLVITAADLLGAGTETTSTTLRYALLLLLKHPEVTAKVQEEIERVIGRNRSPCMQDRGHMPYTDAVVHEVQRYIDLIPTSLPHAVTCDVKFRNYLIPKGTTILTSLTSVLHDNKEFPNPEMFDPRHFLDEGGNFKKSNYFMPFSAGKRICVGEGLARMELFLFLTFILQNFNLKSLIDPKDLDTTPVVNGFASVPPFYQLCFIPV
hERG (KCNH2), sequence (Q12809 whole entry): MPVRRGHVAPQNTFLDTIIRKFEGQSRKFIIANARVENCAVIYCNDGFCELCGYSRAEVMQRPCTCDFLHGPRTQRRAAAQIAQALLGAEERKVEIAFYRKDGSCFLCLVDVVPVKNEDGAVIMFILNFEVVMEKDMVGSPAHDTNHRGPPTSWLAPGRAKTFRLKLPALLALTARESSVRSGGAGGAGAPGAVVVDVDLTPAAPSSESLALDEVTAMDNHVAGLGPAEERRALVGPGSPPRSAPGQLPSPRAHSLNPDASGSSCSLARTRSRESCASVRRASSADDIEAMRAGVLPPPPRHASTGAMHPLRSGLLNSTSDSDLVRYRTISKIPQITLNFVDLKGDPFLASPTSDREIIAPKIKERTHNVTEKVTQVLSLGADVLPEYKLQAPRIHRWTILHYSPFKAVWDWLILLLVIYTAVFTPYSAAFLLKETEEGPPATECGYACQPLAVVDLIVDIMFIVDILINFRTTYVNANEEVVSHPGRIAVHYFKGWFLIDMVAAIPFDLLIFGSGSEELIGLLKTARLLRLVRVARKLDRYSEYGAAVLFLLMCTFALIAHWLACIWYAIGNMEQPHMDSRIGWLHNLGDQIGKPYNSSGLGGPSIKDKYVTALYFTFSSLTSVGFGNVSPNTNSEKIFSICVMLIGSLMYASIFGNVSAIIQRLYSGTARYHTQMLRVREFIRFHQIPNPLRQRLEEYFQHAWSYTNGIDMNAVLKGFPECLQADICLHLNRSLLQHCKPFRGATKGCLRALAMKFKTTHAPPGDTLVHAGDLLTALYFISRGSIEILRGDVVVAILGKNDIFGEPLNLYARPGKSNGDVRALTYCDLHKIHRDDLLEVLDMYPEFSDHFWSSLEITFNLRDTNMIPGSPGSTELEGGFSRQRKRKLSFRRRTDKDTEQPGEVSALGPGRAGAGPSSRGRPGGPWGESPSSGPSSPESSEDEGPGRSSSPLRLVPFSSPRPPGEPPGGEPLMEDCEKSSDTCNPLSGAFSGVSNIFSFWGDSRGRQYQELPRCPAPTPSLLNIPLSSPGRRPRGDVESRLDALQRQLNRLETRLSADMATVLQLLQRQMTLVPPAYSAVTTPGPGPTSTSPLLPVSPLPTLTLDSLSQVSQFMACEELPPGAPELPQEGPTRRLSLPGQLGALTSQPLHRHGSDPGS

In general, solubility refers to the dissolved amount per volume that the medium holds. The inhibition is the percentage by which the read-out fell short of the control. The half-life is the time needed for the level to fall by half in the phase considered. In general, CC50 refers to the concentration at which the toxic effect on the cells reaches its halfway point. Broadly, the MIC50 is an inhibitory concentration at the 50% level, which refers to growth in some studies and to a panel of isolates in others. A higher MIC50 goes with weaker potency. The MIC is the lowest concentration that inhibits growth of the organism. Read a low MIC as inhibition by little substance. As to `CC(C)n1c(-c2ccc(C3=CCN(C(=N)N)CC3)cc2)nnc1-c1ccc(C2=CCN(C(=N)N)CC2)cc1`, the solubility is 27 µg/mL (≈ 53 µM) in data set [1] and not above 5000 µg/mL in [2]. In addition, the inhibition at 10 µM in [3] came out at 21.6%; in [4], 0%; in data set [5], 10.3%; in data set [7], 0%. In [6], the fraction unbound at 4 h, 1 µM was 0.027. Also, in [8], the half-life was more than 1 h. Further, the selectivity ratio in data set [9] and in [11] was more than 1000 each time. In addition, the CC50 at 24 h in data set [10] amounted to 297 µM; in data set [12], 751 µM. Besides, in data set [13], the MIC50 came to 0.1 µg/mL (≈ 0.196 µM). Further, the MIC in data set [14] is 0.78 µg/mL (≈ 1.53 µM); in data set [15], 0.2 µg/mL (≈ 0.392 µM); in data set [16], less than 0.1 µg/mL; in data set [17] it was less than 0.1 µg/mL; in [18], less than 0.1 µg/mL; in [19], less than 0.1 µg/mL.
